Measurements from PMC6339850 (ACS chemical neuroscience, 2018).
Like-named read-outs stand apart in the source and are kept apart here. Bridge positions count the residues as written; N and C are the ends. Square brackets hold non-standard residues; d marks the D form. Dap = NC[C@H](N)C(=O)O

How the values were obtained:
[1] = target: mouse melanocortin-5 receptor (mouse) (UniProt P41149)
MC1R = conditions: read-out: MC1R agonist potency, cited from earlier work
mouse MC4R [2] = target: T1, mouse MC4R (Mus musculus, UniProt P56450); test: cAMP AlphaScreen antagonist assay; conditions: highest assayed concentrations
mouse MC3R [3] = target: T2, mouse MC3R (Mus musculus, UniProt P33033); conditions: for MC3R activity in words: agonist (up to 100 μM) and antagonist activity at the concentrations assayed; for mMC3R percent maximal stimulatory response at 100 μM: 100000.0
mouse MC4R [4] = target: T1, mouse MC4R; test: cAMP AlphaScreen agonist assay, HEK293 cells stably expressing mouse MC4R; conditions: agonist (up to 100 μM) and antagonist activity at the concentrations assayed
mouse MC1R [5] = target: T3, mouse MC1R (Mus musculus, UniProt Q01727); test: cell-based
mouse MC5R [6] = target: T4, mouse MC5R (Mus musculus, UniProt P41149); conditions: for mMC5R percent maximal stimulatory response at 100 μM / mMC5R inverse agonist, percent change from basal at 100 μM: 100000.0; for MC5R activity in words: up to 100 μM
mouse MC3R [7] = target: T2, mouse MC3R; test: cell-based
mouse MC3R [8] = target: T2, mouse MC3R; test: cAMP AlphaScreen antagonist assay
[9] = target: mouse melanocortin-3 receptor (mouse) (UniProt P33033)
[10] = target: mouse melanocortin-4 receptor (mouse) (UniProt P56450)
mouse MC5R [11] = target: T4, mouse MC5R; test: cell-based
mouse MC1R [12] = target: T3, mouse MC1R; conditions: for mMC1R percent maximal stimulatory response at 100 μM: 100000.0; for MC1R potency increase compared to the starting ligand 2: agonist potency relative to 2

T3 sequence (Q01727 whole entry): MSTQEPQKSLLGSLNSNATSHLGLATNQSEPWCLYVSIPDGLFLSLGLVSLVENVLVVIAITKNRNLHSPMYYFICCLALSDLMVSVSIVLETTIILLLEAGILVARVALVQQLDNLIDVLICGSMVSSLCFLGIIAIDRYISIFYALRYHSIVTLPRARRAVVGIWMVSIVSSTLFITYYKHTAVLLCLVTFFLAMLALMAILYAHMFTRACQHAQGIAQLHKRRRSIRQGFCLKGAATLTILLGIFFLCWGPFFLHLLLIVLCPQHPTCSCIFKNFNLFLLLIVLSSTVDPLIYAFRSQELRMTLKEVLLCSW
Sequence of mouse melanocortin-5 receptor (mouse) (P41149 whole entry): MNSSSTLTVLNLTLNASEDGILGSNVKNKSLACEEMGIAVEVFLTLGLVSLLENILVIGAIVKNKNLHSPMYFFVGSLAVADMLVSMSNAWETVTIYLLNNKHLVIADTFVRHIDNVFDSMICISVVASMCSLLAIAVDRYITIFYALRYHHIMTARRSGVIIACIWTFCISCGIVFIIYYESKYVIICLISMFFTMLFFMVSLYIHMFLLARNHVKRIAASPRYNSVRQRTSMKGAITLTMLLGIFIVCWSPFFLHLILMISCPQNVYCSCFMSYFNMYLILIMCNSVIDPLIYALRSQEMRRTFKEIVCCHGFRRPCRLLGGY
T4 sequence (P41149 whole entry): as above
T2 sequence (P33033 whole entry): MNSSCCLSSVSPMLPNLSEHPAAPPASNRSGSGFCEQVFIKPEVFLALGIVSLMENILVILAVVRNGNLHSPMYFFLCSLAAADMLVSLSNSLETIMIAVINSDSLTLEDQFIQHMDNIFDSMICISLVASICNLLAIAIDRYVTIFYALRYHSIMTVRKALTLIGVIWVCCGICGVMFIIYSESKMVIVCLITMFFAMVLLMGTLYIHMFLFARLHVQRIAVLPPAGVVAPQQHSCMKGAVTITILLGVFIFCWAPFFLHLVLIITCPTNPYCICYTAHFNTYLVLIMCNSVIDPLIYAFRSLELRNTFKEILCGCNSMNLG
Sequence of mouse melanocortin-3 receptor (mouse) (P33033 whole entry): as above
T1 sequence (P56450 whole entry): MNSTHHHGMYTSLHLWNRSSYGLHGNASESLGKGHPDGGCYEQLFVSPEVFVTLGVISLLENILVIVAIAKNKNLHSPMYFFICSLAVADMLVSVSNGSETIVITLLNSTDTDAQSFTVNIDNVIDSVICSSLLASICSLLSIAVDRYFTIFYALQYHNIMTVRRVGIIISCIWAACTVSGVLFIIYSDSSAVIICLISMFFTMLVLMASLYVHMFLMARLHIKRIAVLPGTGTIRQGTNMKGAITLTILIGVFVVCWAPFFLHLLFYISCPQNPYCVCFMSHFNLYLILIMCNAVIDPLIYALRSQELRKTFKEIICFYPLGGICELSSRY
Sequence of mouse melanocortin-4 receptor (mouse) (P56450 whole entry): as above

c[Pro-DArg-Phe-Phe-Dap-Ala-Phe-DPro] (peptide)
agonist EC50; cAMP AlphaScreen, HEK293 cells stably expressing mouse MC5R [1]: > 100000 nM

H-Tyr-c[Dap-Arg-Phe-Phe-Asn-Ala-Phe-Asp]-Tyr-NH2 (Y[Dap]RFFNAFDY-NH2; lactam N-9; SMILES C[C@@H]1NC(=O)[C@H](CC(N)=O)NC(=O)[C@H](Cc2ccccc2)NC(=O)[C@H](Cc2ccccc2)NC(=O)[C@H](CCCNC(=N)N)NC(=O)[C@H](CN)NC(=O)[C@H](Cc2ccc(O)cc2)NC(=O)C[C@@H](C(=O)N[C@@H](Cc2ccc(O)cc2)C(N)=O)NC(=O)[C@H](Cc2ccccc2)NC1=O)
EC50 (MC1R; previously reported ref 34): 28100 nM

C[C@@H]1NC(=O)[C@H](CC(N)=O)NC(=O)[C@H](Cc2ccccc2)NC(=O)[C@H](Cc2ccccc2)NC(=O)[C@@H](CCCNC(=N)N)NC(=O)[C@@H]2CCCN2C(=O)[C@H]2CCCN2C(=O)[C@H](Cc2ccccc2)NC1=O [Peptide 3, c[Pro-DArg-Phe-Phe-Asn-Ala-Phe-DPro]]
MC4R antagonist activity in words (mouse MC4R [2]): did not possess antagonist activity

H-Tyr-c[Cys-Arg-Phe-Phe-Asn-Ala-Phe-Cys]-Tyr-OH
EC50 (MC1R; previously reported ref 33): 2890 nM

C[C@@H]1NC(=O)[C@H](CC(N)=O)NC(=O)[C@@H](Cc2ccccc2)NC(=O)[C@@H](Cc2ccccc2)NC(=O)[C@@H](CCCNC(=N)N)NC(=O)[C@@H]2CCCN2C(=O)[C@H]2CCCN2C(=O)[C@H](Cc2ccccc2)NC1=O [Peptide 9, c[Pro-DArg-DPhe-DPhe-Asn-Ala-Phe-DPro]]
MC3R activity in words (mouse MC3R [3]): No agonist or antagonist activity was observed
MC4R antagonist activity in words (mouse MC4R [2]): did not possess antagonist activity
MC4R activity in words (mouse MC4R [4]): No agonist or antagonist activity was observed
EC50 (mouse MC1R [5]): 1300 nM
mMC5R percent maximal stimulatory response at 100 μM (mouse MC5R [6]): 55%

C[C@@H]1NC(=O)[C@H](CN)NC(=O)[C@@H](Cc2ccccc2)NC(=O)[C@@H](Cc2ccccc2)NC(=O)[C@@H](CCCNC(=N)N)NC(=O)[C@@H]2CCCN2C(=O)[C@H]2CCCN2C(=O)[C@H](Cc2ccccc2)NC1=O [Peptide 16, c[Pro-DArg-DPhe-DPhe-Dap-Ala-Phe-DPro]]
EC50 (mouse MC3R [7]): > 100000 nM
Kb (mouse MC3R [8]): > 3160 nM
MC3R activity in words (mouse MC3R [3]): no activity
EC50 (mouse MC1R [5]): 2200 nM
mMC5R inverse agonist, percent change from basal at 100 μM (mouse MC5R [6]): 15%
MC5R activity in words (mouse MC5R [6]): apparent inverse agonist activity

c[Pro-DArg-DPhe-Phe-Dap-Ala-Phe-DPro] (peptide)
agonist EC50; cAMP AlphaScreen, HEK293 cells stably expressing mouse MC3R [9]: > 100000 nM
agonist EC50; cAMP AlphaScreen, HEK293 cells stably expressing mouse MC4R [10]: > 100000 nM

C[C@@H]1NC(=O)[C@H](CN)NC(=O)[C@@H](Cc2ccccc2)NC(=O)[C@H](Cc2ccccc2)NC(=O)[C@H](CCCNC(=N)N)NC(=O)[C@@H]2CCCN2C(=O)[C@H]2CCCN2C(=O)[C@H](Cc2ccccc2)NC1=O [Peptide 12, c[Pro-Arg-Phe-DPhe-Dap-Ala-Phe-DPro]]
EC50 (mouse MC3R [7]): > 100000 nM
Kb (mouse MC3R [8]): > 3160 nM
MC3R activity in words (mouse MC3R [3]): No activity was observed
EC50 (mouse MC1R [5]): 800 nM
EC50 (mouse MC5R [11]): > 100000 nM
MC5R activity in words (mouse MC5R [6]): No activity was observed

C[C@@H]1NC(=O)[C@H](CC(N)=O)NC(=O)[C@H](Cc2ccccc2)NC(=O)[C@@H](Cc2ccccc2)NC(=O)[C@H](CCCNC(=N)N)NC(=O)[C@@H]2CCCN2C(=O)[C@H]2CCCN2C(=O)[C@H](Cc2ccccc2)NC1=O [Peptide 4, c[Pro-Arg-DPhe-Phe-Asn-Ala-Phe-DPro]]
EC50 (mouse MC1R [5]): 700 nM
mMC5R inverse agonist, percent change from basal at 100 μM (mouse MC5R [6]): 25%
MC5R activity in words (mouse MC5R [6]): apparent inverse agonist activity

C[C@@H]1NC(=O)[C@H](CC(N)=O)NC(=O)[C@@H](Cc2ccccc2)NC(=O)[C@@H](Cc2ccccc2)NC(=O)[C@H](CCCNC(=N)N)NC(=O)[C@@H]2CCCN2C(=O)[C@H]2CCCN2C(=O)[C@H](Cc2ccccc2)NC1=O [Peptide 8, c[Pro-Arg-DPhe-DPhe-Asn-Ala-Phe-DPro]]
EC50 (mouse MC1R [5]): 800 nM

C[C@@H]1NC(=O)[C@H](CC(N)=O)NC(=O)[C@@H](Cc2ccccc2)NC(=O)[C@H](Cc2ccccc2)NC(=O)[C@H](CCCNC(=N)N)NC(=O)[C@@H]2CCCN2C(=O)[C@H]2CCCN2C(=O)[C@H](Cc2ccccc2)NC1=O [Peptide 5, c[Pro-Arg-Phe-DPhe-Asn-Ala-Phe-DPro]]
mMC1R percent maximal stimulatory response at 100 μM (mouse MC1R [12]): 50%
MC4R activity in words (mouse MC4R [4]): loss of agonist and antagonist activities

C[C@@H]1NC(=O)[C@H](CN)NC(=O)[C@@H](Cc2ccccc2)NC(=O)[C@@H](Cc2ccccc2)NC(=O)[C@H](CCCNC(=N)N)NC(=O)[C@@H]2CCCN2C(=O)[C@H]2CCCN2C(=O)[C@H](Cc2ccccc2)NC1=O [Peptide 15, c[Pro-Arg-DPhe-DPhe-Dap-Ala-Phe-DPro]]
EC50 (mouse MC3R [7]): > 100000 nM
MC1R potency increase compared to the starting ligand 2 (mouse MC1R [12]): > 1,000 fold
Kb (mouse MC3R [8]): 2000 nM
EC50 (mouse MC1R [5]): 700 ± 300 nM
EC50 (mouse MC5R [11]): > 100000 nM
MC5R activity in words (mouse MC5R [6]): no activity was observed

C[C@@H]1NC(=O)[C@H](CN)NC(=O)[C@H](Cc2ccccc2)NC(=O)[C@@H](Cc2ccccc2)NC(=O)[C@@H](CCCNC(=N)N)NC(=O)[C@@H]2CCCN2C(=O)[C@H]2CCCN2C(=O)[C@H](Cc2ccccc2)NC1=O [Peptide 13, c[Pro-DArg-DPhe-Phe-Dap-Ala-Phe-DPro]]
EC50 (mouse MC3R [7]): > 100000 nM
Kb (mouse MC3R [8]): 1000 nM
EC50 (mouse MC1R [5]): 800 nM
mMC5R inverse agonist, percent change from basal at 100 μM (mouse MC5R [6]): 30%
MC5R activity in words (mouse MC5R [6]): apparent inverse agonist activity

C[C@@H]1NC(=O)[C@H](CN)NC(=O)[C@H](Cc2ccccc2)NC(=O)[C@H](Cc2ccccc2)NC(=O)[C@@H](CCCNC(=N)N)NC(=O)[C@@H]2CCCN2C(=O)[C@H]2CCCN2C(=O)[C@H](Cc2ccccc2)NC1=O [Peptide 10, c[Pro-DArg-Phe-Phe-Dap-Ala-Phe-DPro]]
mMC1R percent maximal stimulatory response at 100 μM (mouse MC1R [12]): 25%
Kb (mouse MC3R [8]): 2000 nM
mMC3R percent maximal stimulatory response at 100 μM (mouse MC3R [3]): 25%
EC50 (mouse MC5R [11]): > 100000 nM
MC5R activity in words (mouse MC5R [6]): no activity was observed

C[C@@H]1NC(=O)[C@H](CN)NC(=O)[C@H](Cc2ccccc2)NC(=O)[C@@H](Cc2ccccc2)NC(=O)[C@H](CCCNC(=N)N)NC(=O)[C@@H]2CCCN2C(=O)[C@H]2CCCN2C(=O)[C@H](Cc2ccccc2)NC1=O [Peptide 11, c[Pro-Arg-DPhe-Phe-Dap-Ala-Phe-DPro]]
EC50 (mouse MC3R [7]): > 100000 nM
MC1R potency increase compared to the starting ligand 2 (mouse MC1R [12]): > 1,000 fold
Kb (mouse MC3R [8]): 1200 nM
MC3R activity in words (mouse MC3R [3]): No agonist activity was observed
EC50 (mouse MC1R [5]): 230 ± 80 nM
EC50 (mouse MC5R [11]): > 100000 nM
MC5R activity in words (mouse MC5R [6]): No agonist activity was observed

C[C@@H]1NC(=O)[C@H](CN)NC(=O)[C@@H](Cc2ccccc2)NC(=O)[C@H](Cc2ccccc2)NC(=O)[C@@H](CCCNC(=N)N)NC(=O)[C@@H]2CCCN2C(=O)[C@H]2CCCN2C(=O)[C@H](Cc2ccccc2)NC1=O [Peptide 14, c[Pro-DArg-Phe-DPhe-Dap-Ala-Phe-DPro]]
EC50 (mouse MC3R [7]): > 100000 nM
Kb (mouse MC3R [8]): 2000 nM
EC50 (mouse MC1R [5]): 450 nM
mMC5R inverse agonist, percent change from basal at 100 μM (mouse MC5R [6]): 20%
MC5R activity in words (mouse MC5R [6]): apparent inverse agonist activity

c[Pro-Arg-DPhe-DPhe-Dap-Ala-Phe-DPro] (peptide)
agonist EC50; cAMP AlphaScreen, HEK293 cells stably expressing mouse MC5R [1]: > 100000 nM
agonist EC50; cAMP AlphaScreen, HEK293 cells stably expressing mouse MC3R [9]: > 100000 nM
agonist EC50; cAMP AlphaScreen, HEK293 cells stably expressing mouse MC4R [10]: > 100000 nM

c[Pro-Arg-Phe-DPhe-Dap-Ala-Phe-DPro] (peptide)
agonist EC50; cAMP AlphaScreen, HEK293 cells stably expressing mouse MC5R [1]: > 100000 nM
agonist EC50; cAMP AlphaScreen, HEK293 cells stably expressing mouse MC3R [9]: > 100000 nM
agonist EC50; cAMP AlphaScreen, HEK293 cells stably expressing mouse MC4R [10]: > 100000 nM

C[C@@H]1NC(=O)[C@H](CC(N)=O)NC(=O)[C@@H](Cc2ccccc2)NC(=O)[C@H](Cc2ccccc2)NC(=O)[C@@H](CCCNC(=N)N)NC(=O)[C@@H]2CCCN2C(=O)[C@H]2CCCN2C(=O)[C@H](Cc2ccccc2)NC1=O [Peptide 7, c[Pro-DArg-Phe-DPhe-Asn-Ala-Phe-DPro]]
mMC3R percent maximal stimulatory response at 100 μM (mouse MC3R [3]): 35%
MC4R antagonist activity in words (mouse MC4R [2]): did not possess antagonist activity
MC5R activity in words (mouse MC5R [6]): full agonist

c[Pro-Arg-DPhe-Phe-Dap-Ala-Phe-DPro] (peptide)
agonist EC50; cAMP AlphaScreen, HEK293 cells stably expressing mouse MC5R [1]: > 100000 nM
agonist EC50; cAMP AlphaScreen, HEK293 cells stably expressing mouse MC3R [9]: > 100000 nM

C[C@@H]1NC(=O)[C@H](CC(N)=O)NC(=O)[C@H](Cc2ccccc2)NC(=O)[C@@H](Cc2ccccc2)NC(=O)[C@@H](CCCNC(=N)N)NC(=O)[C@@H]2CCCN2C(=O)[C@H]2CCCN2C(=O)[C@H](Cc2ccccc2)NC1=O [Peptide 6, c[Pro-DArg-DPhe-Phe-Asn-Ala-Phe-DPro]]
MC3R activity in words (mouse MC3R [3]): No activity was observed
MC4R antagonist activity in words (mouse MC4R [2]): did not possess antagonist activity
MC4R activity in words (mouse MC4R [4]): No activity was observed
EC50 (mouse MC1R [5]): 500 nM
mMC5R percent maximal stimulatory response at 100 μM (mouse MC5R [6]): 55%

c[Pro-DArg-Phe-DPhe-Dap-Ala-Phe-DPro] (peptide)
agonist EC50; cAMP AlphaScreen, HEK293 cells stably expressing mouse MC3R [9]: > 100000 nM
agonist EC50; cAMP AlphaScreen, HEK293 cells stably expressing mouse MC4R [10]: > 100000 nM

c[Pro-DArg-DPhe-DPhe-Dap-Ala-Phe-DPro] (peptide)
agonist EC50; cAMP AlphaScreen, HEK293 cells stably expressing mouse MC3R [9]: > 100000 nM
agonist EC50; cAMP AlphaScreen, HEK293 cells stably expressing mouse MC4R [10]: > 100000 nM
